# Measured values: patent publication US20260234146A1, “Use of Hypoxia-Inducible Factor-Prolyl Hydroxylase Inhibitor (HIF-PHI) in Rare Anemia” (Kind Pharmaceutical, priority 2023, published 2026)
# Marks after values point to notes of the source that are not given here.
# What was measured:
# [1] = system: MDS model mice; experiment: Effect on MDS model mice (RBC, Hb, HCT); type: in vivo, C57 mice
# Description: Throughout the experimental stage, animals were housed in cages in an animal room with 24-hour continuous central air conditioning, temperature set at 20-26° C., relative air humidity set at 40-70%, and a 12-hour light/dark cycle. All animals had free access to food and sterilized drinking water. The C57 mice used in the experiment contained three knocked-in genes in their genome: Vav1-Cre, LSL, and c-Myc(T58A/S62E). Only animals positive for all three genes were used in the experiment. Expression of Vav1-Cre can induce cleavage at the LSL site, thereby allowing tTA gene expression. After induction with Doxycycline, tTA can bind to promoter of the c-Myc(T58A/S62E) gene, driving its expression, so that the animals develop an MDS phenotype. When the mice reached approximately 8 weeks of age, modeling commenced. They were fed a special diet (containing 200 mg doxycycline per kg of feed) for 4 weeks. Mice were anesthetized on days 0, 14, and 28, and 70 μl of blood was collected from the orbit to measure RBC, Hb, and HCT levels, confirming successful establishment of the MDS model. Subsequently, the mice were randomly divided into 3 groups, with 10 mice per group: Vehicle control group (0.1 M meglumine), Comp-1 low-dose group (10 mg/kg), and Comp-1 high-dose group (30 mg/kg). The dosing or vehicle volume was 6.67 mL/kg. The dosing or vehicle frequency for each group was oral gavage three times per week (TIW) for 4 consecutive weeks. That is, from week 4 to week 8 constituted the treatment period. Mice were anesthetized 14 days (experimental week 6) and 28 days (experimental week 8) after the start of dosing, and 70 μl of blood was collected from the orbit. Collected blood samples were placed in heparin-anticoagulant tubes, and RBC, Hb, and HCT levels in the blood were measured. After blood collection at the final time point for each animal, the animals were euthanized, and corresponding organ tissues were collected for storage and potential future use. Detection instrument: Element HT5 Veterinary Hematology Analyzer; Supplier: HESKA. Data analysis was performed using GraphPad Prism 9.0.
# [2] = system: Hbb^d3th/d3th mice; experiment: Effect on homozygous β-thalassemia mice (CBC analysis); type: in vivo; parameters: HGB Hemoglobin content: unit not given here
# Description: Throughout the experimental stage, animals were housed in cages in an animal room with 24-hour continuous central air conditioning, temperature set at 20-26° C., relative air humidity set at 40-70%, and a 12-hour light/dark cycle. All animals had free access to food (irradiated sterile feed) and water (prepared by an ultrapure water system). The mouse strain used in the experiment was: Hbb^d3th/d3th mice; female and male, 9-15 weeks old, weighing 25-30 grams. The breeding method involved one male paired with two females. Male mice with the Hbb^d3th/d3th genotype, and female mice with the Hbb^d3th/+ genotype were selected. At one week of age, tissue DNA was extracted from toe clips of offspring. Subsequently, PCR amplification and agarose gel electrophoresis for band separation were used for genotyping. Before the experiment, secondary genotyping was performed on mice of appropriate age, and mice with no significant differences in body weight and appearance were selected as experimental animals. Vehicle 1 (0.1 M meglumine aqueous solution) was prepared by dissolving an appropriate amount of meglumine (0.586 g) in an appropriate amount of deionized water (30 mL) with stirring to prepare the vehicle. After preparation, the vehicle was aliquoted into daily doses and stored at 5±3° C. Before administration, it was stirred at room temperature for at least 10 minutes and stirred continuously during the dosing process.
# Comp-1: The required amount of Comp-1 was weighed, completely dissolved in an appropriate volume of Vehicle 1, with stirring and sonicating to form a solution. After visually observing dissolution, vehicle was gradually added to reach the specified volume. Before daily dosing, the formulations (including vehicle) were removed from refrigerator and allowed to reach room temperature. Formulations were stirred at room temperature for at least 10 minutes before administration and stirred throughout the dosing process. The route of administration was oral gavage for all groups, with a dosing volume of 10 mL/kg for all groups, and a dosing frequency of daily for a total of 42 days.
# On days 0, 15, 29, and 43 of dosing, 50 μl of blood was collected from orbit of mice, stored at 4° C., and allowed to return to room temperature before analysis. Samples were then gently mixed and added to pre-prepared diluent (blood:diluent=1:6). Data were obtained using the instrument's pre-dilution mode for detection. Data statistics were processed and analyzed using Microsoft Office Excel (Microsoft Corporation, version 2013, Redmond, WA, USA) and GraphPad Prism 7.0. Red blood cell counts and percentages were reported with two significant FIGURES. T-test analysis was used for comparisons of blood cell counts and percentages between groups and within groups at different time points.
# [3] = 10 mg/kg group, Before dosing Week 4
# [4] = 10 mg/kg group, Pre-modeling Week 0
# [5] = 10 mg/kg oral TIW, After 2 weeks of dosing Week 6
# [6] = 10 mg/kg oral TIW, After 4 weeks of dosing Week 8
# [7] = 30 mg/kg group, Before dosing Week 4
# [8] = 30 mg/kg group, Pre-modeling Week 0
# [9] = 30 mg/kg oral TIW, After 2 weeks of dosing Week 6
# [10] = 30 mg/kg oral TIW, After 4 weeks of dosing Week 8
smiles,measurement,setting,value
"O=C(O)CNC(=O)C1=C(O)C2(CCCC2)n2c(ccc2-c2ccccc2)C1=O [Comp-1, (6′-hydroxy-8′-oxo-3′-phenyl-8′H-spiro[cyclopentane-1,5′-indolizine]-7′-carbonyl)glycine]",HCT Hematocrit,[1]; [3],28.12%
same,Hb Hemoglobin content,[1]; [3],9.52 g/dL
same,RBC Red Blood Cell Count,[1]; [3],6.03 M/μL
same,HCT Hematocrit,[1]; [4],43.35%
same,Hb Hemoglobin content,[1]; [4],14.90 g/dL
same,RBC Red Blood Cell Count,[1]; [4],9.00 M/μL
same,HCT Hematocrit,[1]; [5],34.36%
same,Hb Hemoglobin content,[1]; [5],10.97 g/dL
same,RBC Red Blood Cell Count,[1]; [5],6.33 M/μL
same,HCT Hematocrit,[1]; [6],37.52%
same,Hb Hemoglobin content,[1]; [6],11.77 g/dL
same,RBC Red Blood Cell Count,[1]; [6],7.17 M/μL
same,HCT Hematocrit,[1]; [7],28.01%
same,Hb Hemoglobin content,[1]; [7],9.54 g/dL
same,RBC Red Blood Cell Count,[1]; [7],5.90 M/μL
same,HCT Hematocrit,[1]; [8],43.32%
same,Hb Hemoglobin content,[1]; [8],14.37 g/dL
same,RBC Red Blood Cell Count,[1]; [8],9.01 M/μL
same,HCT Hematocrit,[1]; [9],43.13%
same,Hb Hemoglobin content,[1]; [9],13.56 g/dL
same,RBC Red Blood Cell Count,[1]; [9],7.11 M/μL
same,HCT Hematocrit,[1]; [10],47.41%
same,Hb Hemoglobin content,[1]; [10],14.91 g/dL
same,RBC Red Blood Cell Count,[1]; [10],8.46 M/μL
same,HCT Hematocrit,"[2]; 5 mpk group, Day 0 (pre-dose)",27.58%
same,HGB Hemoglobin content,"[2]; 5 mpk group, Day 0 (pre-dose)",74.60
same,RBC Red Blood Cell Count,"[2]; 5 mpk group, Day 0 (pre-dose)",7.90 10^12/L
same,HCT Hematocrit,"[2]; 5 mpk oral daily, Day 15",31.16# %
same,HGB Hemoglobin content,"[2]; 5 mpk oral daily, Day 15",81.20
same,RBC Red Blood Cell Count,"[2]; 5 mpk oral daily, Day 15",8.35 10^12/L
same,HCT Hematocrit,"[2]; 5 mpk oral daily, Day 29",32.10## %
same,HGB Hemoglobin content,"[2]; 5 mpk oral daily, Day 29",83.00
same,RBC Red Blood Cell Count,"[2]; 5 mpk oral daily, Day 29",8.59 10^12/L
same,HCT Hematocrit,"[2]; 5 mpk oral daily, Day 43",31.04## %
same,HGB Hemoglobin content,"[2]; 5 mpk oral daily, Day 43",80.20
same,RBC Red Blood Cell Count,"[2]; 5 mpk oral daily, Day 43",8.58 10^12/L
same,HCT Hematocrit,"[2]; 10 mpk group, Day 0 (pre-dose)",26.20%
same,HGB Hemoglobin content,"[2]; 10 mpk group, Day 0 (pre-dose)",74.80
same,RBC Red Blood Cell Count,"[2]; 10 mpk group, Day 0 (pre-dose)",7.90 10^12/L
same,HCT Hematocrit,"[2]; 10 mpk oral daily, Day 15",31.92## %
same,HGB Hemoglobin content,"[2]; 10 mpk oral daily, Day 15",83.60
same,RBC Red Blood Cell Count,"[2]; 10 mpk oral daily, Day 15",8.60## 10^12/L
same,HCT Hematocrit,"[2]; 10 mpk oral daily, Day 29",33.02## %
same,HGB Hemoglobin content,"[2]; 10 mpk oral daily, Day 29",88.04
same,RBC Red Blood Cell Count,"[2]; 10 mpk oral daily, Day 29",9.15# 10^12/L
same,HCT Hematocrit,"[2]; 10 mpk oral daily, Day 43",33.36### %
same,HGB Hemoglobin content,"[2]; 10 mpk oral daily, Day 43",89.40
same,RBC Red Blood Cell Count,"[2]; 10 mpk oral daily, Day 43",9.30## 10^12/L
same,HCT Hematocrit,"[2]; 15 mpk group, Day 0 (pre-dose)",27.48%
same,HGB Hemoglobin content,"[2]; 15 mpk group, Day 0 (pre-dose)",75.00
same,RBC Red Blood Cell Count,"[2]; 15 mpk group, Day 0 (pre-dose)",7.77 10^12/L
same,HCT Hematocrit,"[2]; 15 mpk oral daily, Day 15",34.50## %
same,HGB Hemoglobin content,"[2]; 15 mpk oral daily, Day 15",90.17
same,RBC Red Blood Cell Count,"[2]; 15 mpk oral daily, Day 15",8.95# 10^12/L
same,HCT Hematocrit,"[2]; 15 mpk oral daily, Day 29",36.13### %
same,HGB Hemoglobin content,"[2]; 15 mpk oral daily, Day 29",97.5
same,RBC Red Blood Cell Count,"[2]; 15 mpk oral daily, Day 29",9.72#### 10^12/L
same,HCT Hematocrit,"[2]; 15 mpk oral daily, Day 43",36.10#### %
same,HGB Hemoglobin content,"[2]; 15 mpk oral daily, Day 43",94.83
same,RBC Red Blood Cell Count,"[2]; 15 mpk oral daily, Day 43",9.45#### 10^12/L
